Target: T1, Recombinant HCV polymerase (Hepatitis C virus genotype 1b, UniProt P26663)
T1 construct: Recombinant HCV polymerase was tested for its ability to perform primer/template-directed transcription
Test: biochemical
Conditions: inhibition of polymerase-directed transcription; 30 min at 30° C; 30 nM enzyme; cpm data in triplicate
Procedure, shortened: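 Primer/template-directed RNA synthesis by 2.5 pmol HCV polymerase on poly(rC)300/biotin-dG12 with 1 μM GTP plus α-32P-GTP, in pH 7.2 Tris buffer with 10 mM MgCl2, for 30 min at 30 °C. Products were filter-captured and counted, with 1% DMSO final. IC50 was fitted from triplicate cpm; percent inhibition was reported where IC50 was impractical.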

T1 sequence (P26663 2420-3010): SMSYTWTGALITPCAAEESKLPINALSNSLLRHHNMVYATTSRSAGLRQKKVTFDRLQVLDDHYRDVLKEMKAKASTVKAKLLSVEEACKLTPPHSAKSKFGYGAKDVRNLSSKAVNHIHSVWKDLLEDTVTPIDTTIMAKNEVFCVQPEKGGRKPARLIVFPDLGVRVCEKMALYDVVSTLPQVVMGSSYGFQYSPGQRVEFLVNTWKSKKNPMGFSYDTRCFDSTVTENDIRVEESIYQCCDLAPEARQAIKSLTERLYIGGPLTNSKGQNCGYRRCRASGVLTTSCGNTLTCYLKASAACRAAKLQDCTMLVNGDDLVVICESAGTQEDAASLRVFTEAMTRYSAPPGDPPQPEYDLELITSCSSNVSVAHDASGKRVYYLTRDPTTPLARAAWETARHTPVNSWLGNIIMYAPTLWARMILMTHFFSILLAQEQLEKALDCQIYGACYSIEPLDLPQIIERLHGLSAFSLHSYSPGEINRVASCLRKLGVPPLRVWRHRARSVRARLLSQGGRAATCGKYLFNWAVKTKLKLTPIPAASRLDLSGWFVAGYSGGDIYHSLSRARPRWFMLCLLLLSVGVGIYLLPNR

SMILES | IC50 [nM]
C[C@@H](NS(=O)(=O)CC(F)(F)F)c1ccc(CCC2(C3CCCC3)CC(=O)CC(=O)O2)cc1 (stereo partly drawn) [A(88), N-((1R)-1-{4-[2-(2-cyclopentyl-4,6-dioxotetrahydro-2H-pyran-2-yl)ethyl]phenyl}ethyl)-2,2,2-trifluoroethanesulfonamide] | 27000
Cc1cc(C)n2nc(CC3=C(O)CC(CCc4cnn(C(C)C)c4)(C4CCCC4)OC3=O)nc2n1 (stereo not drawn) [A(62), 6-Cyclopentyl-3-[(5,7-dimethyl[1,2,4]triazolo[1,5-a]pyrimidin-2-yl)methyl]-4-hydroxy-6-[2-(1-isopropyl-1H-pyrazol-4-yl)ethyl]-5,6-dihydro-2H-pyran-2-one] | 60
CC(=O)NCc1ccc(CCC2(C3CCCC3)CC(O)=C(Cc3nc4nc(C)cc(C)n4n3)C(=O)O2)cc1F (stereo not drawn) [A(25), N-[4-(2-{2-Cyclopentyl-5-[(5,7-dimethyl[1,2,4]triazolo[1,5-a]pyrimidin-2-yl)methyl]-4-hydroxy-6-oxo-3,6dihydro-2H-pyran-2-yl}ethyl)-2-fluorobenzyl]acetamide] | 100
CCOc1cc(O)c(CC)cc1CCC1(C2CCCC2)CC(O)=C(Cc2nc3ncc(C)cn3n2)C(=O)O1 (single isomer, unassigned) [A(57), 6-Cyclopentyl-6-[2-(2-ethoxy-5-ethyl-4-hydroxyphenyl)ethyl]-4-hydroxy-3-[(6-methyl[1,2,4]triazolo[1,5-a]pyrimidin-2-yl)methyl]-5,6-dihydro-2H-pyran-2-one] | 3
Cc1cc(C)n2nc(CC3=C(O)CC(CCc4ccc(C5(C#N)CC5)cc4)(C4CCCC4)OC3=O)nc2n1 (stereo not drawn) [A(93), 1-[4(2-{2-Cyclopentyl-5-[(5,7-dimethyl[1,2,4]triazolo[1,5-a]pyrimidin-2-yl)methyl]-4-hydroxy-6-oxo-3,6-dihydro-2H-pyran-2-yl}ethyl)phenyl]cyclopropanecarbonitrile] | 6
Cc1c(CC2=C(O)CC(CCc3ccc(C(C)(C)C#N)c(F)c3)(C3CCCC3)OC2=O)cnn1C (stereo not drawn) [A(94), 2-[4-(2-{2-Cyclopentyl-5-[(1,5-dimethyl-1H-pyrazol-4-yl)methyl]-4-hydroxy-6-oxo-3,6dihydro-2H-pyran-2-yl}ethyl)-2-fluorophenyl]-2-methylpropanenitrile] | 27
CCc1cc(CCC2(C3CCCC3)CC(O)=C(Cc3nc4nc(C)cc(C)n4n3)C(=O)O2)c(OC)cc1OC (stereo not drawn) [A(24), 6-Cyclopentyl-3-[(5,7-dimethyl[1,2,4]triazolo[1,5-a]pyrimidin-2-yl)methyl]-6-[2-(5-ethyl-2,4-dimethoxyphenyl)ethyl]-4-hydroxy-5,6-dihydro-2H-pyran-2-one] | 14
CCc1cc(CCC2(C3CCCC3)CC(O)=C(Cc3nc4nc(C)cc(C)n4n3)C(=O)O2)c(OCC2CC2)cc1O (stereo not drawn) [A(32), 6-Cyclopentyl-6-{2-[2-(cyclopropylmethoxy)-5-ethyl-4-hydroxyphenyl]ethyl}-3-[(5,7-dimethyl[1,2,4]triazolo[1,5-a]pyrimidin-2-yl)methyl]-4-hydroxy-5,6-dihydro-2H-pyran-2-one] | 5
Cc1nn(C)c(C)c1CC1=C(O)CC(CCc2ccc(C(C)(C)C#N)c(F)c2)(C2CCCC2)OC1=O (stereo not drawn) [A(89)] | 9
Cc1c(CC2=C(O)CC(CCc3ccc(C(C)(C)C#N)c(F)c3)(C3CCCC3)OC2=O)c(=O)n(-c2ccccc2)n1C (stereo not drawn) [A(100), 2-[4-(2-{2-Cyclopentyl-5-[(1,5-dimethyl-3-oxo-2-phenyl-2,3-dihydro-1H-pyrazol-4-yl)methyl]-4-hydroxy-6-oxo-3,6-dihydro-2H-pyran-2-yl}ethyl)-2-fluorophenyl]-2-methylpropanenitrile] | 79
CCc1ccc(OC)c(CCC2(C3CCCC3)CC(O)=C(Cc3nc4nc(C)cc(C)n4n3)C(=O)O2)n1 (stereo not drawn) [A(6), 6-Cyclopentyl-3-[(5,7-dimethyl[1,2,4]triazolo[1,5-a]pyrimidin-2-yl)methyl]6-[2-(6-ethyl-3-methoxypyridin-2-yl)ethyl]4-hydroxy-5,6-dihydro-2H-pyran-2-one] | 39
CCCOc1cc(O)c(CC)cc1CCC1(C2CCCC2)CC(O)=C(Cc2nc3nc(C)cc(C)n3n2)C(=O)O1 (stereo not drawn) [A(1), 6Cyclopentyl-3[(5,7-dimethyl[1,2,4]triazolo[1,5-a]pyrimidin-2-yl)methyl]-6-[2-(5-ethyl-4-hydroxy-2-propoxyphenyl)ethyl]-4-hydroxy-5,6dihydro-2H-pyran-2-one] | 3
CCCOc1cc(O)c(CC)cc1CCC1(C2CCCC2)CC(O)=C(Cc2nc3ncc(C)cn3n2)C(=O)O1 (stereo not drawn) [A(47), 6-Cyclopentyl-6-[2-(5-ethyl-4-hydroxy-2-propoxyphenyl)ethyl]-4-hydroxy-3-[(6-methyl[1,2,4]triazolo[1,5-a]pyrimidin-2-yl)methyl]-5,6-dihydro-2H-pyran-2-one] | 5
CCOc1cnc(CC)cc1CCC1(C2CCCC2)CC(O)=C(Cc2nc3ncc(C)cn3n2)C(=O)O1 (single isomer, unassigned) [A(55), 6-Cyclopentyl-6-[2-(5-ethoxy-2-ethylpyridin-4-yl)ethyl]-4-hydroxy-3-[(6-methyl[1,2,4]triazolo[1,5-a]pyrimidin-2-yl)methyl]-5,6-dihydro-2H-pyran-2-one] | 2
Cc1cc(C)n2nc(CC3=C(O)CC(CCc4ccc(C(C)(C)NS(C)(=O)=O)c(F)c4)(C4CCCC4)OC3=O)nc2n1 (stereo not drawn) [A(29), N-{1-[4-(2-{2-cyclopentyl-5-[(5,7-dimethyl[1,2,4]triazolo[1,5-a]pyrimidin-2-yl)methyl]-4-hydroxy-6-oxo-3,6-dihydro-2H-pyran-2-yl}ethyl)-2-fluorophenyl]-1-methylethyl}methanesulfonamide] | 17
Cc1cc(C)n2nc(CC3=C(O)CC(CCc4ccc(S(=O)(=O)C(F)(F)F)cc4)(C4CCCC4)OC3=O)nc2n1 (stereo not drawn) [A(65)] | 250
CCc1cc(CCC2(C3CCCC3)CC(O)=C(Cc3nc4ncc(C)cn4n3)C(=O)O2)ccc1CC#N (stereo not drawn) [A(103), [4-(2-{2-cyclopentyl-4-hydroxy-5-[(6-methyl[1,2,4]triazolo[1,5-a]pyrimidin-2-yl)methyl]-6-oxo-3,6-dihydro-2H-pyran-2-yl}ethyl)-2-ethylphenyl]acetonitrile] | 3
CCOc1cc(O)c(CC)cc1CCC1(C2CCCC2)CC(O)=C(Cc2nc3ncc(C)cn3n2)C(=O)O1 (single isomer, unassigned) [A(58), 6-Cyclopentyl-6-[2-(2-ethoxy-5-ethyl-4-hydroxyphenyl)ethyl]-4-hydroxy-3-[(6-methyl[1,2,4]triazolo[1,5-a]pyrimidin-2-yl)methyl]-5,6-dihydro-2H-pyran-2-one] | 1
CCc1cc(CCC2(C3CCCC3)CC(O)=C(Cc3nc4nc(C)cc(C)n4n3)C(=O)O2)c2c(c1O)CCO2 (single isomer, unassigned; enantiomer 2) [A(13), Enantiomer 2 of 6-Cyclopentyl-3-[(5,7-dimethyl[1,2,4]triazolo[1,5-a]pyrimidin-2-yl)methyl]-6-[2-(5-ethyl-4-hydroxy-2,3-dihydro-1-benzofuran-7-yl)ethyl]-4-hydroxy-5,6dihydro-2H-pyran-2-one] | 1

Now from value to compound:

IC50 [nM] | SMILES
12 | Cc1cc(C)n2nc(CC3=C(O)CC(CCc4cnc(C(C)(C)C#N)c(Cl)c4)(C4CCCC4)OC3=O)nc2n1 (racemic) [Example B(39), 2-[3-chloro-5-(2-{2-cyclopentyl-5-[(5,7-dimethyl[1,2,4]triazolo[1,5-a]pyrimidin-2-yl)methyl]-4-hydroxy-6-oxo-3,6-dihydro-2H-pyran-2-yl}ethyl)pyridin-2-yl]-2-methylpropanenitrile]
5 | CCc1cc(CCC2(C3CCCC3)CC(O)=C(Cc3nc4nc(C)cc(C)n4n3)C(=O)O2)ccc1C (stereo not drawn) [A(111), 6-Cyclopentyl-3[(5,7-dimethyl[1,2,4]triazolo[1,5-a]pyrimidin-2-yl)methyl]-6-[2-(3-ethyl-4-methylphenyl)ethyl]-4-hydroxy-5,6dihydro-2H-pyran-2-one]
6400 | CS(=O)(=O)c1ccc(CCC2(C3CCCC3)CC(=O)CC(=O)O2)cc1C(F)(F)F (stereo not drawn) [B(3)]
10000 | Cc1cc(C)n2nc(OC3C(=O)CC(CCc4ccc(C(C)(C)C#N)c(Cl)c4)(C4CCCC4)OC3=O)nc2n1 (stereo not drawn) [B(27), 2-[2-Chloro-4-(2-{2-cyclopentyl-5-[(5,7-dimethyl[1,2,4]triazolo[1,5-a]pyrimidin-2-yl)oxy]-4,6-dioxotetrahydro-2H-pyran-2-yl}ethyl)phenyl]-2-methylpropanenitrile]
5 | CCc1cc(CCC2(C3CCCC3)CC(O)=C(Cc3nc4nc(C)cc(C)n4n3)C(=O)O2)ccc1CC#N (single isomer, unassigned; enantiomer 1) [A(116), Enantiomer 1 of [4-(2-{2-Cyclopentyl-5-[(5,7-dimethyl[1,2,4]triazolo[1,5-a]pyrimidin-2-yl)methyl]-4-hydroxy-6-oxo-3,6dihydro-2H-pyran-2-yl}ethyl)-2-ethylphenyl]acetonitrile]
7 | CCc1cc(CCC2(C3CCCC3)CC(O)=C(Cc3nc4nc(C)cc(C)n4n3)C(=O)O2)ccc1COC (stereo not drawn) [A(120), 6-Cyclopentyl-3-[(5,7-dimethyl[1,2,4]triazolo[1,5-a]pyrimidin-2-yl)methyl]-6-{2-[3ethyl-4-(methoxymethyl)phenyl]ethyl}-4-hydroxy-5,6dihydro-2H-pyran-2-one]
5200 | CC(C)(C#N)c1ncc(CCC2(C3CCCC3)CC(=O)CC(=O)O2)cc1Cl (stereo not drawn) [B(29), 2-{3-Chloro-5-[2-(2-cyclopentyl-4,6-dioxotetrahydro-2H-pyran-2-yl)ethyl]pyridin-2-yl}-2-methylpropanenitrile]
3 | CCc1cc(CCC2(C3CCCC3)CC(O)=C(Cc3nc4ncccn4n3)C(=O)O2)ccc1-c1ncco1 (stereo not drawn) [A(136), 6-Cyclopentyl-6-{2-[3-ethyl-4-(1,3-oxazol-2-yl)phenyl]ethyl}-4-hydroxy-3-([1,2,4]triazolo[1,5-a]pyrimidin-2-ylmethyl)-5,6-dihydro-2H-pyran-2-one]

Source: patent publication US7151105B2, “Inhibitors of Hepatitis C virus RNA-dependent RNA polymerase, and compositions and treatments using the same” (Agouron Pharmaceuticals, Inc., priority 2004, dated 2006)
